Format in all cases: cell-based
In assay [1] the test system is MCF-7 cells. Briefly: MTT cell viability assay, MCF-7 cells. To be noted: Homo sapiens. The protocol: (§1) MCF-7, HeLa, and RAW264.7 cells were cultured in DMEM supplemented with 10% FBS and 1% penicillin/streptomycin. Cell culture was maintained at 37 °C in a 5% CO2 incubator.
(§2) The assessment of cell viability was performed using an MTT assay to assess the cytotoxic effects of CCL on MCF-7, Hela, and RAW264.7 cells. Initially, MCF-7, HeLa, and RAW264.7 cells were seeded onto 96-well plates at a density of 2 × 10^4 cells/mL. Following a 24-h incubation period, the culture medium was replaced with a serum-free medium containing specified concentrations of CCL, verbascoside, isoverbascoside, and hispidulin ranging from 12.5 to 1000 µg/mL. Following 24, 48, and 72 h of treatment, an MTT solution (0.5 mg/mL in culture medium) was added to each well and incubated at 37 °C for 2 h. The metabolically active cells converted MTT into formazan crystals, which were then dissolved in 100 µL of DMSO per well. Absorbance was recorded at 550 nm using a SpectraMax 3 microplate reader (Molecular Devices, San Jose, CA, USA). The IC50 values were determined using GraphPad Prism v.7.0 (La Jolla, CA, USA). Cell viability was assessed in comparison to untreated control cells using the following equation: Cell viability %=A550sample/A550control×100%

Assay [2] concerns RAW 264.7 macrophages. Briefly: MTT cell viability assay, RAW264.7 cells. The note with it: Mus musculus. The procedure: as §1, §2
(Tetrazolium assays rely on reduction of a dye to a coloured formazan, in cell work by metabolically active cells.)

In assay [3] the test system is HeLa cells. The assay can be described thus: MTT cell viability assay, HeLa cells. The note with it: Homo sapiens. The protocol:
as §1, §2

In brackets after ≈: the same amount, converted by molar mass. Where two headings read alike, the source gives them in different places.

As for `COc1c(O)cc2oc(-c3ccc(O)cc3)cc(=O)c2c1O` [Hispidulin], the IC50 (as a rule, the concentration that gives 50% inhibition) was 905 µg/mL (≈ 3010 µM) in assay [1] (MCF7, 24 h); 710 µg/mL (≈ 2370 µM) in assay [1] (MCF7, 48 h); 527 µg/mL (≈ 1760 µM) in assay [1] (MCF7, 72 h); 99.2 µg/mL (≈ 330 µM) in assay [2] (RAW264.7, 24 h); 120 µg/mL (≈ 401 µM) in assay [2] (RAW264.7, 48 h); 180 µg/mL (≈ 600 µM) in assay [2] (RAW264.7, 72 h). Besides, the IC50 amounted to 98.2 µg/mL (≈ 327 µM) in assay [3] (24 h), 119 µg/mL (≈ 397 µM) in assay [3] (48 h) and 311 µg/mL (≈ 1040 µM) in assay [3] (72 h).

Take `C[C@@H]1O[C@@H](O[C@@H]2[C@@H](O)[C@H](OCCc3ccc(O)c(O)c3)O[C@H](CO)[C@H]2OC(=O)/C=C/c2ccc(O)c(O)c2)[C@H](O)[C@H](O)[C@H]1O` [Verbascoside]: the IC50 in assay [1] (MCF7, MCF-7, 24 h, MTT, read-out: IC50) worked out at 186 µg/mL (≈ 297 µM); in assay [1] (MCF7, MCF-7, 48 h, MTT, read-out: IC50), 184 µg/mL (≈ 294 µM); in assay [1] (MCF7, MCF-7, 72 h, MTT, read-out: IC50) it was 173 µg/mL (≈ 277 µM); in assay [2] (RAW264.7, RAW 264.7, 24 h, MTT, read-out: IC50) it was 432 µg/mL (≈ 691 µM); in assay [2] (RAW264.7, RAW 264.7, 48 h, MTT, read-out: IC50), 446 µg/mL (≈ 714 µM); in assay [2] (RAW264.7, RAW 264.7, 72 h, MTT, read-out: IC50) it was 480 µg/mL (≈ 769 µM). Besides, the 50% inhibitory concentration (IC50) in assay [3] (24 h, MTT, read-out: IC50) was found to be 373 µg/mL (≈ 597 µM); in assay [3] (48 h, MTT, read-out: IC50) it was 291 µg/mL (≈ 466 µM); in assay [3] (72 h, MTT, read-out: IC50), 342 µg/mL (≈ 547 µM).

For the origin of these results see PMC11943097, “Phytochemical Characterization and Anticancer Activity of Clerodendrum chinense Leaf Extract Against Breast and Cervical Cancer Cells” (International Journal of Molecular Sciences, 2025).
